From publication PMC5974751, “NKp44-Derived Peptide Binds Proliferating Cell Nuclear Antigen and Mediates Tumor Cell Death” (Frontiers in Immunology, 2018) come the findings set out here.

Peptide text beside a SMILES is read from it.

In one data set the test system is B16 melanoma cells. The data set is described as follows: PrestoBlue cell viability, B16. The following applies: 24 h, sigmoidal dose–response. The class given is cell-based, murine. On the procedure: (§1) Target cells (2.5 × 10^4 cells/well of a 48-well plate, Corning) were seeded and incubated in 37°C, 5% CO2 for 24 h in 0.5 ml of fresh complete DMEM (10% FBS) culture medium. According to molecular weight peptides were diluted from 8 to 2 µM with 5% FBS containing DMEM culture medium just before the incubation with the target cells. Medium was removed from each well, and 250 µl of diluted peptides was added and incubated for another 24 h at 37°C, 5% CO2. PrestoBlue (A13261, Invitrogen™) solution was prepared by diluting the dye 10-fold with complete DMEM. Medium was discarded from each well, and 250 µl of PrestoBlue solution was added to each well, shake gently and incubated at 37°C for another 1 h. Emission at 560 nm was measured in Premium Quad4 Monochromators plate reader (Tecan). Normalization was done relative to the appropriate control (DMEM or DMSO) to calculate the percentage of viable cells in each group. Selenite (25 µM) was used as a positive control ([52], [53]).

Data set [1] deals with PANC-1 pancreas ductal adenocarcinoma cells. The data set is described as follows: PrestoBlue cell viability, PANC-1. The data set is classed as cell-based, human. The following applies: PANC-1, PrestoBlue, 24 h; sigmoidal dose–response. On the procedure: as §1
The test system of data set [2] is HepG2 hepatocellular carcinoma cells. Put plainly: PrestoBlue cell viability, HepG2. The class given is cell-based, human. To be noted: 24 h, sigmoidal dose–response. On the procedure: as §1
The test system of data set [3] is MDA-MB-231 breast adenocarcinoma cells. Put plainly: PrestoBlue cell viability, MDA-MB-231. The class given is cell-based, human. The following applies: MDA-MB-231, PrestoBlue, 24 h; sigmoidal dose–response. As to the method: as §1
The subject of a further data set is B16 cells. Put plainly: Flow cytometry based cell death assay (PI), B16. On the set-up: species or system murine. To be noted: 0–8 µM, 24 h. As to the method: (§2) Peptides were diluted before the incubation with the target cells with free DMEM culture medium to 0–16 µM according to peptide molecular weight. For adding the peptides, 0.5 ml was removed from each well, and 0.5 ml of diluted peptides was added to a final volume of 1 ml, 5% FCS, duplicates. Peptides were incubated with target cells for 24 h, and then the medium was collected, adherent cells were removed with trypsin–EDTA (0.5 ml, 3 min, BI: 03-052-1B), 1 ml of complete medium was added to each well, and the medium was collected (final volume 2.5 ml, on ice). For the cell death assay, samples were then centrifuged (1,300 rpm, 4°C, 5 min), the medium was removed, fresh 1 ml 10% FCS was added, and then 1 µl of 1 mg/ml PI was added to each sample and incubated (15 min, on ice) with the target cells. Before analyzing the samples, samples were centrifuged (1,300 rpm, 4°C, 5 min), the medium was removed, and fresh 0.2 ml FCAS buffer (PBS 1×, 20% FCS, 0.5% NaN3) was added. Samples were then read and analyzed using BD FACSCanto™ II and FlowJo®. APIM peptide and camptothecin (CPT) were used as positive controls ([38], [54]–[56]). Specific cell death was calculated as following: Y = 100*((sample cell death − basal cell death)/(100 − basal cell death)). Basal cell death = % of PI positive cells following incubation in complete culture media.
In general terms: In flow cytometry, cells or beads pass a laser one at a time.

The next data set deals with 4T1 cells. Put plainly: Flow cytometry based cell death assay (PI), 4T1. On the set-up: species or system murine. To be noted: 4T1, PI flow cytometry, 0–8 µM, 24 h. On the procedure:
as §2

For the next data set, the system named is MDA-MB-231 cells. The data set is described as follows: Flow cytometry based cell death assay (PI), MDA-MB-231. On the set-up: species or system human. The following applies: MDA-MB-231, PI flow cytometry, 0–8 µM, 24 h. As to the method: as §2
Data set [4] has as its system pep8–PCNA interaction (recombinant PCNA). Put plainly: ELISA-based inhibition of biotin-pep8 binding to PCNA. On the set-up: species or system human. The following applies: inhibitor 25 µg/ml 1 h, then biotin-pep8 5 µg/ml 1 h, room temperature, O.D. 650 nm. As to the method: To determine the ability of APIM-based peptide to suppress NKp44-pep8 interaction with PCNA, ELISA plates were coated with recombinant PCNA followed by PBS–skim milk added as described earlier. Plates were then incubated with 25 µg/ml of R11-NLS-pep8 (positive control), R11-NLS-pep8short (negative control), and APIM for 1 h at room temperature followed by addition of biotin-pep8 (5 µg/ml) without washing for 1 h at room temperature. Biotin-pep8 binding to PCNA was detected using streptavidin conjugated HRP (1 h at 1:500 dilution 100 μl/well). Following washing, TMB (100 μl/well DAKO, S1599) was added. O.D. was read at 650 nm (Thermo Electron Corporation Multiskan Spectrum).
Background: In an ELISA, binding on a coated surface is turned into a signal by an enzyme label.

Data set [5] has as its system 4T1 breast cancer tumor in BALB/C mice. Put plainly: In vivo 4T1 tumor growth. The following applies: for tumor growth suppression vs vehicle, significance on days 19 and 23 / tumor growth suppression vs vehicle, significance on day 28: R11-NLS-pep8 5 mg/kg IV, 5-FU 30 mg/kg; for tumor growth suppression vs vehicle, significance on days 19 and 23: every 2 days, treatment stopped day 22, unpaired t-test, one-tail; for tumor growth suppression vs vehicle, significance on day 28: treatment stopped day 22. On the set-up: species or system mouse. As to the method: Seven-week-old female BALB/C mice with an average body weight of 20 g were used in this experiment. 4T1 cells suspended at a density of 2 × 10^5 cells/50 μl, in serum-free DMEM containing 40% Geltrex, were injected into the left mammary fat pad, and allowed to develop tumors. After 5 days, mice were randomly divided into three groups, one group was treated with R11-NLS-pep8, at a dose of 5 mg/kg, intravenously (IV), other group with 5-FU, at a dose of 30 mg/kg, (IV) and mice treated with a 1.44% DMSO/150 mM NaCl solution, (IV) served as the vehicle control. Treatment was continued following every 2 days at least for 4 weeks. Each week, tumor size was evaluated by measuring their length (L) and width (W), using a Caliper device and tumor volume (V) was calculated according to the equation: V = LW^2/2. After 4 weeks of treatment, mice were euthanized, and tumors volume and weight were measured.
Figure 5 Effect of R11-NLS-pep8 on 4T1 and B16 in vivo tumor models. (A) 4T1 cells or (C) B16 cells were injected into the nipple pad or flank of young BALB/C females or C57BL/6 males, respectively (day 0). At day 5, mice were divided to subgroups according to mice weight. Treatment was started at day 5 (4T1) or day 6 (B16) and end at day 22. Treatment was administrated every 2 days three times per week; 5-FU was administered intraperitoneally (IP) while R11-NLS-pep8 was administrated intravenously (4T1) or IP (B16). Tumor volume (mm^3) was measured at days as indicated on graphs mean tumor volume (mm^3), (B) 4T1 and (D) B16 were normalized to vehicle/day to show the effect of treatment on tumor volume per day. Statistical analysis was performed on original tumor volume data. Unpaired t-test; one-tail, *p < 0.05.

The subject of data set [6] is B16 melanoma tumor in C57BL/6 mice. The data set is described as follows: In vivo B16 tumor growth. On the set-up: species or system mouse. To be noted: R11-NLS-pep8 5 mg/kg IP, 5-FU 30 mg/kg IP, treatment stopped day 22. On the procedure: Seven-week-old male C57BL/6 mice with an average body weight of 23 g were used in the other experiment. B16 cells suspended at a density of 0.5 × 10^6 cells/100 μl, in serum-free DMEM containing 40% Geltrex, were injected subcutaneously in the left dorsal flank, and allowed to develop tumors. After 6 days, mice were randomly divided into three groups, one group was treated with R11-NLS-pep8, at a dose of 5 mg/kg, intraperitoneally (IP), other group with 5-FU, at a dose of 30 mg/kg, (IP) and mice treated with a 1.44% DMSO/150 mM NaCl solution, (IP) served as the vehicle control. Treatment was done three times a week at least for 4 weeks. Each week, tumors size was evaluated by measuring their length (L) and width (W), using a Caliper device and tumor volume (V) was calculated according to the equation: V = LW^2/2. After 3 weeks of treatment, mice were euthanized, and tumors volume and weight were measured.
Figure 5 Effect of R11-NLS-pep8 on 4T1 and B16 in vivo tumor models. (A) 4T1 cells or (C) B16 cells were injected into the nipple pad or flank of young BALB/C females or C57BL/6 males, respectively (day 0). At day 5, mice were divided to subgroups according to mice weight. […] Tumor volume (mm^3) was measured at days as indicated on graphs mean tumor volume (mm^3), (B) 4T1 and (D) B16 were normalized to vehicle/day to show the effect of treatment on tumor volume per day. […]

The nature of data set [7]: Initial toxicity studies in mice. The data set is classed as in vivo, mouse. The following applies: 5 mg/kg every 2 days for 3 weeks; data not shown. On the procedure:
Initial toxicity studies have been performed with the 5 mg/kg dose injected into mice every 2 days for 3 weeks, and analysis of mouse weight and well-being was meticulously observed during this time. Also, livers, spleens, and lungs were harvested and weight.

As for `CC[C@H](C)[C@H](NC(=O)[C@H](CCCNC(=N)N)NC(=O)[C@H](CCCNC(=N)N)NC(=O)[C@H](CCCNC(=N)N)NC(=O)[C@H](CCCNC(=N)N)NC(=O)[C@H](CCCNC(=N)N)NC(=O)[C@H](CCCNC(=N)N)NC(=O)[C@H](CCCNC(=N)N)NC(=O)[C@H](CCCNC(=N)N)NC(=O)[C@H](CCCNC(=N)N)NC(=O)[C@H](CCCNC(=N)N)NC(=O)[C@H](CCCNC(=N)N)NC(C)=O)C(=O)N[C@@H](CCCCN)C(=O)N[C@@H](CCCCN)C(=O)N[C@@H](CCCCN)C(=O)N[C@@H](CCCNC(=N)N)C(=O)N[C@@H](CCCCN)C(=O)N[C@@H](Cc1c[nH]c2ccccc12)C(=O)N[C@@H](CCC(=O)O)C(=O)N[C@@H](C)C(=O)N[C@@H](CO)C(=O)N[C@@H](C)C(=O)N[C@@H](CC(C)C)C(=O)N[C@H](C(=O)N[C@@H](CS)C(=O)N[C@H](C(=O)N[C@@H](CCCNC(=N)N)C(=O)N[C@@H](CC(C)C)C(=O)N[C@H](C(=O)N[C@H](C(=O)N[C@@H](CO)C(=O)N[C@@H](CO)C(=O)N[C@@H](CCCCN)C(=O)N1CCC[C@H]1C(=O)N[C@@H](CCCNC(=N)N)C(=O)N[C@H](C(=O)N[C@H](C(=O)N[C@H](C)C(=O)O)C(C)C)[C@@H](C)O)[C@@H](C)O)C(C)C)[C@@H](C)CC)C(C)C` [R11-NLS-pep8] (HELM PEPTIDE1{[ac].R.R.R.R.R.R.R.R.R.R.R.I.K.K.K.R.K.W.E.A.S.A.L.V.C.I.R.L.V.T.S.S.K.P.R.T.V.[dA]}$$$$V2.0; C-terminus assumed), the “ED50, cell viability” value was 7.1 µM in the data set with B16 melanoma cells, 7.8 µM in [1], 5.9 µM in data set [2] and 5.6 µM in [3]. Further, the “ED50, cell death” value with B16 cells turned out to be 3.94 µM; in the data set on 4T1 cells, 3.78 µM; in the data set with MDA-MB-231 cells, 4.07 µM. Moreover, the “inhibition of pep8 binding to PCNA” value in data set [4] was 35%. Moreover, the “growth suppression relative to 5-FU” value in data set [5] (R11-NLS-pep8 5 mg/kg IV vs 5-FU IP 30 mg/kg) is “comparable to the effect of 5-FU”. Further, the “tumor growth suppression vs vehicle, significance on days 19 and 23” value in [5] was “statistically significant on days 19 and 23”. In addition, the “tumor growth suppression vs vehicle, significance on day 28” value in data set [5] is listed as “statistically non-significant difference”. Besides, the “tumor growth suppression, day 23” value in data set [6] is given as “significantly suppressed B16 growth”. Besides, the “mice weights and well-being” value in data set [7] is “No significant changes were observed”. Also, the “organ weights (livers, spleens, lungs) at end of experiment” value in data set [7] is reported as “No significant changes were observed”.
Take `O=c1[nH]cc(F)c(=O)[nH]1` [5-FU, reference compound]: in [5], the “tumor growth suppression vs vehicle, significance on days 19 and 23” value was “clear yet non-significant on days 19 and 23”; the “tumor growth suppression vs vehicle, significance on day 28” value was “significant on day 28”. Also, the “tumor growth suppression, day 23” value in [6] is reported as “significantly suppressed B16 growth”.
